From patent US8691811B2, “Quinazolinone linked pyrrolo[2,1-c][1,4]benzodiazepine hybrids as potential anticancer agents and process for the preparation thereof” (Council of Scientific & Industrial Research, priority 2008, dated 2014) come the findings set out here.

The test system of one experiment is HOP-62. In words: Tata protocol cytotoxicity (SRB, 48 h), HOP-62. The conditions noted are these: HOP-62, lung. In kind it is cell-based, human. Here is the method:
(§1) The C8-linked quinazolinone-PBD hybrids (5b, 5c, 5k, 5l, 5m) have been tested against eleven human tumour cell lines derived from seven cancer types (lung cancer, colon cancer, cervix, ovarian cancer, oral cancer, prostate cancer and breast cancer) as per Tata protocol. For each compound, dose response curves for individual cell lines have been measured at a minimum of five concentrations at 10 fold dilutions. A protocol of 48 h continuous drug exposure has been used, and a sulforhodamine B (SRB) protein assay was used to estimate cell viability or growth. Compounds 5b, 5c, 5k, 5l, 5m have been evaluated for their in vitro cytotoxicity in eleven cell lines from seven human cancer types of lung (Hop-62, A-549) colon (COLO-205) cervix (Si-Ha), ovary (A-2780), prostate (PC3) breast (MCF7, Zr-75-1), oral (DWD, GURAV, KB). The results are expressed as percent of cell growth determined relative to that of untreated control cells (Table-4).

Experiment [1] relates to eleven human tumour cell lines. In words: Tata protocol in vitro cytotoxicity (SRB, 48 h), all cell lines. It is filed as cell-based. The settings on record: bound over all eleven cell lines, read-out: GI50 value against eleven cell lines in seven cell panels. Here is the method:
as §1

Experiment [2] deals with lung cancer cell lines (Hop-62, A-549). In words: Tata protocol cytotoxicity (SRB, 48 h), lung panel. It is filed as cell-based. The conditions noted are these: Homo sapiens; range over the panel; exposure period of at least 48 hrs; read-out: GI50, in vitro activity against lung. Here is the method: as §1
Another experiment relates to Zr-75-1. Briefly: Tata protocol cytotoxicity (SRB, 48 h), Zr-75-1. In kind it is cell-based, human. The conditions noted are these: Zr-75-1, breast. Here is the method:
as §1

The subject of experiment [3] is ovarian cancer cell line (A-2780). Briefly: Tata protocol cytotoxicity (SRB, 48 h), ovarian panel. It is filed as cell-based. The conditions noted are these: Homo sapiens, A2780; exposure period of at least 48 hrs; read-out: GI50, in vitro activity against ovarian. Here is the method:
as §1

The next experiment relates to KB. In words: Tata protocol cytotoxicity (SRB, 48 h), KB. In kind it is cell-based, human. The conditions noted are these: oral. Here is the method:
as §1

Experiment [4] deals with breast cancer cell lines (MCF7, Zr-75-1). Briefly: Tata protocol cytotoxicity (SRB, 48 h), breast panel. It is filed as cell-based. The conditions noted are these: Homo sapiens; range over the panel; exposure period of at least 48 hrs; read-out: IC50, in vitro activity against breast. Here is the method: as §1
A further experiment has as its system Si-Ha. In words: Tata protocol cytotoxicity (SRB, 48 h), Si-Ha. The conditions noted are these: cervix. In kind it is cell-based, human. Here is the method:
as §1

The subject of experiment [5] is colon cancer cell line (COLO-205). Briefly: Tata protocol cytotoxicity (SRB, 48 h), colon panel. It is filed as cell-based. The settings on record: Homo sapiens, exposure period of at least 48 hrs, read-out: GI50, in vitro activity against colon. Here is the method: as §1
A further experiment deals with PC-3. Briefly: Tata protocol cytotoxicity (SRB, 48 h), PC-3. In kind it is cell-based, human. The settings on record: PC-3, prostate. Here is the method: as §1
The subject of another experiment is MCF7. Briefly: Tata protocol cytotoxicity (SRB, 48 h), MCF7. It is filed as cell-based, human. The settings on record: MCF7, breast. Here is the method: as §1
The next experiment has as its system Colo-205. Briefly: Tata protocol cytotoxicity (SRB, 48 h), Colo-205. In kind it is cell-based, human. The conditions noted are these: Colo-205, colon. Here is the method:
as §1

The subject of experiment [6] is duplex-form calf thymus DNA (CT-DNA). Briefly: Thermal denaturation studies with calf thymus DNA. The conditions noted are these: [PBD]:[DNA] molar ratio 1:5, CT-DNA 100 μM, ligand 20 μM, pH 7.00. In kind it is binding. Here is the method: Compounds have been subjected to thermal denaturation studies with duplex-form calf thymus DNA (CT-DNA) using a modification of a reported procedure. Working solutions in aqueous buffer ([…] NaH2PO4/Na2HPO4, 1 mM Na2EDTA, pH 7.00+0.01). containing CT-DNA (100 μm in phosphate) and the PBD (20 μm) have been prepared by addition of concentrated PBD solutions in DMSO to obtain a fixed [PBD]/[DNA] molar ratio of 1:5. The DNA-PBD solutions have been incubated at 37° C. for 0 and 18 hrs prior to analysis. Samples have been monitored at 260 nm using a Beckman DU-800 spectrophotometer fitted with high performance temperature controller, and heated at 1° C. min^−1 in the 40-110° C. range. DNA helix→coil transition temperatures (Tm) have been obtained from the maxima in the d(A260)/dT derivative plots. Drug-induced alterations in DNA melting behavior are given by: ΔTm=Tm(DNA+PBD)−Tm(DNA alone), where the Tm value for the PBD-free CT-DNA is 68.5±0.01.
The DNA-binding for these novel C8-linked quinazolinone-PBD hybrids has been examined by thermal denaturation studies using calf thymus (CT) DNA. […] Data for 5b, 5c, 5d, and 5k, 5l, 5m and DC-81 are included in Table 5 for comparison.

In experiment [7] the test system is prostate cancer cell line (PC3). Briefly: Tata protocol cytotoxicity (SRB, 48 h), prostate panel. It is filed as cell-based. The settings on record: Homo sapiens; exposure period of at least 48 hrs; read-out: GI50, in vitro activity against prostate. Here is the method: as §1
The next experiment concerns GURAV. In words: Tata protocol cytotoxicity (SRB, 48 h), GURAV. It is filed as cell-based, human. The conditions noted are these: oral. Here is the method:
as §1

Another experiment relates to DWD. In words: Tata protocol cytotoxicity (SRB, 48 h), DWD. In kind it is cell-based, human. The settings on record: oral. Here is the method: as §1
The test system of the next experiment is A-549. In words: Tata protocol cytotoxicity (SRB, 48 h), A-549. It is filed as cell-based, human. Here is the method: as §1
The test system of the next experiment is A-2780. In words: Tata protocol cytotoxicity (SRB, 48 h), A-2780. It is filed as cell-based, human. Here is the method:
as §1

By GI50 is commonly meant the concentration giving 50% growth inhibition. As a reminder, the IC50 is the concentration that gives 50% inhibition. As for `COc1cc2c(cc1OCCCOc1ccc(-n3c(C)nc4ccccc4c3=O)cc1)N=C[C@@H]1CCCN1C2=O` [5b, 7-methoxy-8{-3-[4-(2-methyl-4-oxo-3,4-dihydro-3-quinazolinyl)phenoxy]propoxy}-(11aS)-1,2,3,11a-tetrahydro-5H-pyrrolo[2,1-c][1,4]benzodiazepine-5-one], the GI50 in the experiment on HOP-62 (Homo sapiens) is 0.16 µM; in experiment [1], under 1.83 µM; in [2] it was 0.16 to 1.48 µM; with Zr-75-1 (Homo sapiens), 0.16 µM; in [3], 0.1 µM; with KB (Homo sapiens) it was 0.15 µM. Further, the GI50 in the experiment with Si-Ha (Homo sapiens, SiHa) worked out at 0.16 µM; in experiment [5] it was 0.14 µM; in the experiment with PC-3 (Homo sapiens), 0.13 µM; with MCF7 (Homo sapiens), 1.83 µM; in the experiment on Colo-205 (Homo sapiens), 0.14 µM; in experiment [7] it was 0.13 µM. Also, the GI50 stood at 0.13 µM with GURAV (Homo sapiens); 0.11 µM in the experiment on DWD (Homo sapiens); 1.48 µM in the experiment on A-549 (Homo sapiens, A549, A-549, lung); 0.1 µM with A-2780 (Homo sapiens, A2780, A-2780, ovary). The IC50 in [4] is 0.16 to 1.83 µM. Besides, the “ΔTm after incubation at 37° C. for 0 h” value in experiment [6] amounted to 1.0 °C. In experiment [6], the “ΔTm after incubation at 37° C. for 18 h” value is 2.0 °C.
Turning to `COc1cc2c(cc1OCCCCOc1ccc(-n3c(C)nc4ccccc4c3=O)cc1)N=C[C@@H]1CCCN1C2=O` [5c, 7-methoxy-8{-4-[4-(2-methyl-4-oxo-3,4-dihydro-3-quinazolinyl)phenoxy]butoxy-}-(11aS)-1,2,3,11a-tetrahydro-5H-pyrrolo[2,1-c][1,4]benzodiazepine-5-one], the GI50 in the experiment with HOP-62 amounted to 1.95 µM; in the experiment with Zr-75-1, 1.97 µM; in the experiment with KB, 1.98 µM; with Si-Ha, 1.91 µM; in the experiment with PC-3, 0.17 µM; with MCF7, 2.3 µM. For the same molecule, the GI50 with Colo-205 stood at 1.81 µM; in the experiment with GURAV it was 1.95 µM; with DWD, 1.6 µM; in the experiment on A-549 (A-549, lung), 1.93 µM; in the experiment with A-2780 (A-2780, ovary), 0.16 µM. The “ΔTm after incubation at 37° C. for 0 h” value in [6] was determined as 1.0 °C. In addition, in [6], the “ΔTm after incubation at 37° C. for 18 h” value turned out to be 2.1 °C.
As to `COc1cc2c(cc1OCCCOc1ccc(-n3c(/C=C/c4ccccc4)nc4ccccc4c3=O)cc1)N=C[C@@H]1CCCN1C2=O` [5k, 7-methoxy-8-{3-[(4-4-oxo-2-[(E)-2-phenyl-1-ethenyl]-3,4-dihydro-3-quinazolinylphenyl)oxy]propoxy}-(11aS)-1,2,3,11a-tetrahydro-5H-pyrrolo[2,1-c][1,4]benzodiazepine-5-one], the GI50 in the experiment with HOP-62 was 2.15 µM; in the experiment on Zr-75-1, 0.17 µM; in the experiment with KB, 1.78 µM; with Si-Ha it was 2 µM; in the experiment on PC-3, 0.16 µM; in the experiment on MCF7 it was 2.03 µM. Further, the GI50 in the experiment with Colo-205 was 2.12 µM; in the experiment with GURAV, 1.85 µM; with DWD, 0.14 µM; in the experiment on A-549 (A-549, lung), 1.88 µM; in the experiment with A-2780 (A-2780, ovary), 0.14 µM. In experiment [6], the “ΔTm after incubation at 37° C. for 0 h” value was determined as 1.0 °C. In [6], the “ΔTm after incubation at 37° C. for 18 h” value is 2.0 °C.
Turning to `COc1cc2c(cc1OCCCCOc1ccc(-n3c(/C=C/c4ccccc4)nc4ccccc4c3=O)cc1)N=C[C@@H]1CCCN1C2=O` [5l, 7-methoxy-8-{4-[(4-4-oxo-2-[(E)-2-phenyl-1-ethenyl]-3,4-dihydro-3-quinazolinylphenyl)oxy]butoxy}-(11aS)-1,2,3,11a-tetrahydro-5H-pyrrolo[2,1-c][1,4]benzodiazepine-5-one], the GI50 came to 2.33 µM with HOP-62; 2.44 µM in the experiment with Zr-75-1; 2.07 µM in the experiment on KB; 2.19 µM in the experiment on Si-Ha; 1.91 µM in the experiment with PC-3; 2.23 µM in the experiment on Colo-205. Further, the 50% growth inhibitory concentration (GI50) is 1.93 µM with GURAV; 0.16 µM in the experiment with DWD; 2.39 µM in the experiment with A-549 (A-549, lung); 0.16 µM in the experiment on A-2780 (A-2780, ovary). Moreover, in [6], the “ΔTm after incubation at 37° C. for 0 h” value came to 1.2 °C. The “ΔTm after incubation at 37° C. for 18 h” value in experiment [6] came out at 2.3 °C.
Turning to `COc1cc2c(cc1OCCCCCOc1ccc(-n3c(/C=C/c4ccccc4)nc4ccccc4c3=O)cc1)N=C[C@@H]1CCCN1C2=O` [5m, 7-methoxy-8-{5-[(4-4-oxo-2-[(E)-2-phenyl-1-ethenyl]-3,4-dihydro-3-quinazolinylphenyl)oxy]pentyloxy}-(11aS)-1,2,3,11a-tetrahydro-5H-pyrrolo[2,1-c][1,4]benzodiazepine-5-one], the GI50 came to 2.31 µM in the experiment with HOP-62; 2.09 µM with Zr-75-1; 2.15 µM in the experiment on KB; 2.08 µM in the experiment on Si-Ha; 1.83 µM in the experiment with PC-3; 2.5 µM in the experiment on MCF7. In addition, the GI50 in the experiment on Colo-205 was determined as 2 µM; in the experiment with GURAV, 1.82 µM; in the experiment on DWD, 0.17 µM; in the experiment with A-549 (A-549, lung) it was 2.62 µM; with A-2780 (A-2780, ovary), 0.15 µM. Besides, the “ΔTm after incubation at 37° C. for 0 h” value in [6] amounted to 1.1 °C. Besides, the “ΔTm after incubation at 37° C. for 18 h” value in experiment [6] worked out at 2.1 °C.
For the molecule `COc1cc2c(cc1O)N=CC1CCCN1C2=O` (stereo not drawn) [DC-81, reference compound], in experiment [6], the “ΔTm after incubation at 37° C. for 0 h” value was 0.3 °C and the “ΔTm after incubation at 37° C. for 18 h” value was found to be 0.7 °C.
